Source: the supplement of paper PMC8671470

How the values were obtained:
Conditions in all cases: 72 h
BV-173 = test system: BV-173
Method in brief: (§1)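 Fifteen myeloid leukaemia cell lines were seeded in RPMI 1640 at a density titrated to the linear growth range. Each line went into 384-well plates with compounds acoustically pre-printed at five tenfold doses from 1 to 10,000 nM, in duplicate, and was incubated for 72 h at 37 °C with 5% CO2. Luminescent ATP viability was normalised to vehicle and to a positive control at 10 µM. The IC50 came from four-parameter log-logistic dose–response fits.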

HEL = test system: HEL
Method in brief: as §1

HL-60 = test system: HL-60
Method in brief: as §1

K-562 = test system: K-562
Method in brief: as §1

KCL-22 = test system: KCL-22
Method in brief: as §1

KG-1 = test system: KG-1
Method in brief: as §1

KU-812 = test system: KU-812
Method in brief: as §1

LAMA-84 = test system: LAMA-84
Method in brief: as §1

ML-2 = test system: ML-2
Method in brief: as §1

MOLM-13 [1] = test system: MOLM-13
Method in brief: as §1

MV4-11 = test system: MV4-11
Method in brief: as §1

Mono-Mac-6 = test system: Mono-Mac-6
Method in brief: as §1

NOMO-1 = test system: NOMO-1
Method in brief: as §1

SHI-1 = test system: SHI-1
Method in brief: as §1

THP-1 = test system: THP-1
Method in brief: as §1

MOLM-13 [2] = experiment: cell viability (% survival relative to DMSO control, bortezomib = 0%); higher = less cytotoxic
Method in brief: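 Percent survival figures are means of duplicate wells. They were obtained by CellTiter-Glo luminescence after 10 AML and 5 CML cell lines spent 72 h at 37 °C with 5% CO2 in 384-well plates with compounds at 1, 10, 100, 1000 or 10000 nM. Vehicle was set to 100% and a 10 µM positive control to 0%.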

Structure (SMILES) | IC50 (cell viability) (BV-173) | IC50 (cell viability) (HEL) | IC50 (cell viability) (HL-60) | IC50 (cell viability) (K-562) | IC50 (cell viability) (KCL-22) | IC50 (cell viability) (KG-1) | IC50 (cell viability) (KU-812) | IC50 (cell viability) (LAMA-84) | IC50 (cell viability) (ML-2) | IC50 (cell viability) (MOLM-13 [1]) | IC50 (cell viability) (MV4-11) | IC50 (cell viability) (Mono-Mac-6) | IC50 (cell viability) (NOMO-1) | IC50 (cell viability) (SHI-1) | IC50 (cell viability) (THP-1) | cell viability (MOLM-13 [2]; 1 nM) | cell viability (MOLM-13 [2]; 10 nM) | cell viability (MOLM-13 [2]; 100 nM) | cell viability (MOLM-13 [2]; 1000 nM) | cell viability (MOLM-13 [2]; 10000 nM)
[N-]=[N+]=CC(=O)CC[C@H](N)C(=O)O [6-Diazo-5-oxo-L-norleucine] | > 10 µM | > 10 µM | > 10 µM | > 10 µM | > 10 µM | > 10 µM | > 10 µM | > 10 µM | > 10 µM | > 10 µM | > 10 µM | > 10 µM | > 10 µM | > 10 µM | > 10 µM | 106% | 111% | 119% | 101% | 116%
CCOC(=O)N1c2ccc(C(F)(F)F)cc2[C@@H](N(Cc2cc(C(F)(F)F)cc(C(F)(F)F)c2)C(=O)OC)C[C@H]1CC [Torcetrapib] | 0.652 µM | > 10 µM | > 10 µM | > 10 µM | > 10 µM | 9.96 µM | > 10 µM | > 10 µM | 7.83 µM | > 10 µM | 7.03 µM | > 10 µM | > 10 µM | > 10 µM | > 10 µM | 95.9% | 112% | 141% | 98.3% | 63.7%
CC(C)C[C@H](NC(=O)[C@@H](O)[C@H](N)Cc1ccccc1)C(=O)O [Ubenimex] | > 10 µM | > 10 µM | > 10 µM | > 10 µM | > 10 µM | > 10 µM | > 10 µM | > 10 µM | > 10 µM | > 10 µM | > 10 µM | > 10 µM | > 10 µM | > 10 µM | > 10 µM | 110% | 100% | 114% | 94.8% | 94.3%
CC(Cc1ccc(O)c(O)c1)C(C)Cc1ccc(O)c(O)c1 (stereo not given) [Masoprocol] | 3.66 µM | > 10 µM | 3.15 µM | > 10 µM | > 10 µM | 6.63 µM | > 10 µM | > 10 µM | 3.42 µM | > 10 µM | 3.8 µM | 2.08 µM | > 10 µM | > 10 µM | > 10 µM | 98.4% | 106% | 110% | 91.2% | 65.8%
O=C1Nc2ccccc2/C1=C\NCCc1ccc(O)c(O)c1 [AC1NZZMF] | > 10 µM | > 10 µM | > 10 µM | > 10 µM | > 10 µM | > 10 µM | > 10 µM | > 10 µM | > 10 µM | > 10 µM | > 10 µM | > 10 µM | > 10 µM | > 10 µM | > 10 µM | 97.6% | 104% | 101% | 108% | 88.9%
Clc1ccc(COC(Cn2ccnc2)c2ccc(Cl)cc2Cl)cc1 (stereo not given) [Econazole] | 2.28 µM | > 10 µM | 3.64 µM | 2.39 µM | 6.71 µM | 6.84 µM | 7.24 µM | > 10 µM | 8.94 µM | 0.925 µM | 1.08 µM | > 10 µM | > 10 µM | > 10 µM | > 10 µM | 79.3% | 140% | 84.8% | 58.7% | 29.2%
O=C(O)c1nn(Cc2ccc(Cl)cc2Cl)c2ccccc12 [Lonidamine] | > 10 µM | > 10 µM | > 10 µM | > 10 µM | > 10 µM | > 10 µM | > 10 µM | > 10 µM | > 10 µM | > 10 µM | > 10 µM | > 10 µM | > 10 µM | > 10 µM | > 10 µM | 102% | 113% | 116% | 91.3% | 98.4%
CCOC(=O)[C@@]1(CCCCCCOc2ccc(Cl)cc2)CO1 [Etomoxir] | 6.76 µM | > 10 µM | > 10 µM | > 10 µM | > 10 µM | > 10 µM | > 10 µM | 5.83 µM | > 10 µM | > 10 µM | > 10 µM | > 10 µM | > 10 µM | > 10 µM | > 10 µM | 134% | 99.7% | 93.1% | 92% | 93%
N[C@](CCCCB(O)O)(CCN1CCCCC1)C(=O)O [Arginase inhibitor 1] | > 10 µM | > 10 µM | > 10 µM | > 10 µM | > 10 µM | > 10 µM | > 10 µM | > 10 µM | > 10 µM | > 10 µM | > 10 µM | > 10 µM | > 10 µM | > 10 µM | > 10 µM | 106% | 99.8% | 117% | 74.4% | 72%
O=C(COc1ccc(C(=O)c2ccccc2)cc1)NC1CCN(Cc2ccccc2)CC1 [AdipoRon] | 7.82 µM | > 10 µM | > 10 µM | > 10 µM | > 10 µM | 9.73 µM | 8.38 µM | > 10 µM | > 10 µM | > 10 µM | > 10 µM | > 10 µM | > 10 µM | > 10 µM | > 10 µM | 94% | 106% | 93.6% | 105% | 76.5%
Cl.OC[C@H]1NC[C@@H](O)[C@@H](O)[C@@H]1O [1-Deoxymannojirimycin hydrochloride] | > 10 µM | > 10 µM | > 10 µM | > 10 µM | > 10 µM | > 10 µM | > 10 µM | > 10 µM | > 10 µM | > 10 µM | > 10 µM | > 10 µM | > 10 µM | > 10 µM | > 10 µM | 115% | 88.3% | 96.3% | 104% | 105%
C[C@H]1O[C@@H](O[C@H]2[C@@H](O)C[C@H](O[C@H]3[C@@H](O)C[C@H](O[C@H]4CC[C@@]5(C)[C@H](CC[C@@H]6[C@@H]5C[C@@H](O)[C@]5(C)[C@@H](C7=CC(=O)OC7)CC[C@]65O)C4)O[C@@H]3C)O[C@@H]2C)C[C@H](O)[C@@H]1O [Digoxin] | 0.0361 µM | 0.102 µM | 0.0342 µM | 0.0855 µM | 0.0555 µM | 0.0639 µM | 0.0647 µM | 0.0546 µM | 0.0386 µM | 0.034 µM | 0.0402 µM | 0.0424 µM | 0.123 µM | 0.0453 µM | 0.0752 µM | 105% | 105% | 0.137% | -0.695% | 0.435%
CC(C(=O)O)C(=O)O [Methylmalonate] | > 10 µM | > 10 µM | > 10 µM | > 10 µM | > 10 µM | > 10 µM | > 10 µM | > 10 µM | > 10 µM | > 10 µM | > 10 µM | > 10 µM | > 10 µM | > 10 µM | > 10 µM | 107% | 86.8% | 124% | 78.3% | 89.2%
